Key:
[1] = tested on: Pseudoalteromonas ulvae (TC14); assay: Anti-adhesion test, strain TC14; format: cell-based; settings: Pseudoalteromonas ulvae; for activity at 200 µM: 15 h; for EC50: read-out: EC50 (effective concentration to inhibit 50% of the adhesion)
Description: (§1) Bacterial strains were grown on Väätänen nine-salts solution (VNSS). When the stationary phase was reached, the bacterial suspension was centrifuged. Cells were then diluted in sterile artificial sea water (ASW) and introduced in microtiter plates (sterile black PS; Nunc, Fisher Scientific, France) with the tested compound (at eight concentrations in three replicates) in the presence of three controls: (i) non-specific staining control, (ii) adhesion control, and (iii) positive control. The maximum percentage of solvent (DMSO 2%) used to dilute the tested compound was also tested in triplicate as additional control. After incubation during an optimized adhesion time (moderately 15 h), non-adhered bacteria were eliminated and adhered cells were quantified after SYTO 61 (1 μM) staining. A percentage of inhibition was calculated per well. A sigmoid dose-response curve was obtained by plotting the percentage of inhibition as a function of the log of tested compound concentration, after mean (n=3) and standard deviation (SD) calculation per triplicate for each concentration. EC50 values were then calculated for each compound.
Pseudoalteromonas ulvae (TC14) was isolated in June 2010 in the Military Harbor of Toulon (Mediterranean Sea, France) as described in F. Brian-Jaisson, A. Ortalo-Magné, L. Guentas-Dombrowsky, F. Armougom, Y. Blache, M. Molmeret, Microb. Ecol., 2014, 68, 94-110.

[2] = tested on: Pseudoalteromonas lipolytica (TC8); assay: Anti-adhesion test, strain TC8; format: cell-based; settings: Pseudoalteromonas lipolytica; for activity at 200 µM: 15 h, read-out: % of adhesion at 200 μM, TC8; for EC50: read-out: EC50 (effective concentration to inhibit 50% of the adhesion), TC8
Description: (§2) The anti-adhesion bioassays and toxicity tests are adapted from those disclosed in M. Camps, J.-F. Briand, L. Guentas-Dombrowsky, G. Culioli, A. Bazire and Y. Blache, Mar. Poll.
as §1

Paracoccus sp. (4M6) = assay: Anti-adhesion test, strain 4M6; format: cell-based; settings: Paracoccus; for activity at 200 µM: 15 h, read-out: % of adhesion at 200 μM, 4M6; for EC50: read-out: EC50 (effective concentration to inhibit 50% of the adhesion), 4M6
Description: as §2, §1

[3] = tested on: marine bacterial strains (TC14, TC8, 4M6, TC5 and TC11); assay: Anti-adhesion test, summary over the strains; format: cell-based; settings: read-out: inhibition of the adhesion of at least two marine bacterial strains
Description: as §1
In examples 64 and 65, the following marine bacterial strains are used.

Polaribacter sp. (TC5) = assay: Anti-adhesion test, strain TC5; format: cell-based; settings: for activity at 200 µM: 15 h; for EC50: read-out: EC50 (effective concentration to inhibit 50% of the adhesion)
Description: as §1
Polaribacter sp. (TC5) was isolated in June 2010 in the Military Harbor of Toulon (Mediterranean Sea, France) as described in F. Brian-Jaisson, A. Ortalo-Magné, L. Guentas-Dombrowsky, F. Armougom, Y. Blache, M. Molmeret, Microb. Ecol., 2014, 68, 94-110.

Shewanella sp. (TC11) = assay: Anti-adhesion test, strain TC11; format: cell-based; settings: for activity at 200 µM: 15 h, strain TC11, read-out: % of adhesion at 200 μM, TC11; for EC50: read-out: EC50 (effective concentration to inhibit 50% of the adhesion), strain TC11
Description: as §1
Shewanella sp. (TC11) was isolated in June 2010 in the Military Harbor of Toulon (Mediterranean Sea, France) as described in F. Brian-Jaisson, A. Ortalo-Magné, L. Guentas-Dombrowsky, F. Armougom, Y. Blache, M. Molmeret, Microb. Ecol., 2014, 68, 94-110.

[4] = Gravimetry (weight loss), corrosion inhibition; settings: mild steel in 1N HCl
Description: The corrosion rates were determined by electrochemical impedance spectroscopy measurements and gravimetry.
Weight loss measurements were performed on 2.5×2.0×0.1 cm rectangular mild steel coupons. The mild steel coupons were immersed into non-de-aerated HCl 1N solution in absence and presence of different concentrations of compounds of general formula (I). After the elapsed time, the coupons were taken out, washed, dried and weighed accurately. Experiments were duplicated.
Weight loss experiments were done to confirm the corrosion inhibitive properties of AS164.
The inhibition efficiency, IE (%), was estimated from the weight loss experiments using the following equation:
[formula] wherein CR^o and CR are respectively the corrosion rate in the absence and presence of AS164.

SMILES	activity at 200 µM [1] [%]	EC50 [1] [µM]	activity at 200 µM [2] [%]	activity at 200 µM (Paracoccus sp. (4M6)) [%]	EC50 (Paracoccus sp. (4M6)) [µM]	inhibition at 200 µM [3] [%]	EC50 [2] [µM]	activity at 200 µM (Polaribacter sp. (TC5)) [%]	EC50 (Polaribacter sp. (TC5)) [µM]	activity at 200 µM (Shewanella sp. (TC11)) [%]	EC50 (Shewanella sp. (TC11)) [µM]	IE % ([4]; 0.1 ppm) [%]	IE % ([4]; 0.3 ppm) [%]	IE % ([4]; 0.5 ppm) [%]	IE % ([4]; 2 ppm) [%]	IE % ([4]; 10 ppm) [%]
Oc1ccc(CCn2cc(-c3ccc(-c4cn(CCc5ccc(O)c(Br)c5)nn4)cc3)nn2)cc1Br [NT23, 1,4 bis (1-(3-bromo-4-hydroxyphenethyl)-1H-1,2,3-triazol-4-yl) benzene]	31 ± 6.1	40.9 ± 11.4	58.3 ± 8.7	31.8 ± 3.5	59.9 ± 7.7	≥ 65	–	–	–	–	–	–	–	–	–	–
COc1ccc(Cn2cc(-c3ccc(-c4cn(Cc5ccc(OC)c(Br)c5)nn4)cc3)nn2)cc1Br [SA8, 1-(3-bromo-4-methoxybenzyl)-4-(4-(1-(3-bromo-4-methoxybenzyl)-1H-1,2,3-triazol-4-yl)phenyl)-1H-1,2,3-triazole]	23.3 ± 3.8	99.5 ± 4.5	24.1 ± 2.6	33.1 ± 4.4	163 ± 23.6	–	159 ± 28.5	38.3 ± 0.1	152 ± 6.7	16.4 ± 8	122 ± 7.1	–	–	–	–	–
CN(C)CCCOc1ccc(CCn2cc(-c3ccc(-c4cn(CCc5ccc(OCCCN(C)C)cc5)nn4)cc3)nn2)cc1 [SA12, 3-(4-(2-(4-(4-(1-(4-(3-(dimethylamino)propoxy)phenethyl)-1H-1,2,3-triazol-4-yl)phenyl)-1H-1,2,3-triazol-1-yl)ethyl)phenoxy)-N,N-dimethylpropan-1-amine]	42.4 ± 8.6	187 ± 16.5	30 ± 21.9	14.3 ± 7.3	73.2 ± 10.7	–	177 ± 80.1	66.2 ± 2.8	–	41 ± 4.1	173 ± 22.4	39.30	69.97	94.65	96.89	95.73
CN(C)CCCOc1ccc(CCCn2cc(-c3ccc(-c4cn(CCCc5ccc(OCCCN(C)C)c(Br)c5)nn4)cc3)nn2)cc1Br [SA32, 3-(4-(3-(4-(4-(1-(3-(4-(3-(dimethylamino)propoxy)-3-bromophenyl)propyl)-1H-1,2,3-triazol-4-yl)phenyl)-1H-1,2,3-triazol-1-yl)propyl)-2-bromophenoxy)-N,N-dimethylpropan-1-amine]	34.3 ± 2.6	115 ± 20.5	17.7 ± 11.1	26.7 ± 5.6	3.1 ± 8.6	–	109 ± 37.2	53.4 ± 13.8	114 ± 28.6	17.4 ± 2.9	61.1 ± 18.5	79.01	95.43	96.30	96.54	95.58
CN(C)CCOc1ccc(CCn2cc(-c3ccc(-c4cn(CCc5ccc(OCCN(C)C)c(I)c5)nn4)cc3)nn2)cc1I [SA45, 2-(4-(2-(4-(4-(1-(4-(2-(dimethylamino)ethoxy)-3-iodophenethyl)-1H-1,2,3-triazol-4-yl)phenyl)-1H-1,2,3-triazol-1-yl)ethyl)-2-iodophenoxy)-N,N-dimethylethanamine]	42.1 ± 2.9	175 ± 21.2	30 ± 16.3	3.2 ± 4.6	14.2 ± 3.2	–	135 ± 34.3	37.5 ± 13.3	147 ± 32.4	9.3 ± 0.5	129 ± 13.2	78.07	93.01	94.67	95.23	96.09
CN(C)CCCOc1ccc(CCn2cc(-c3ccc(-c4cn(CCc5ccc(OCCCN(C)C)c(I)c5)nn4)cc3)nn2)cc1I [SA46, 3-(4-(2-(4-(4-(1-(4-(3-(dimethylamino)propoxy)-3-iodophenethyl)-1H-1,2,3-triazol-4-yl)phenyl)-1H-1,2,3-triazol-1-yl)ethyl)-2-iodophenoxy)-N,N-dimethylpropan-1-amine]	30.2 ± 3.5	74.4 ± 8.3	17.4 ± 14.3	26.6 ± 3.4	48.3 ± 48.9	–	71.5 ± 4.1	22.4 ± 14.7	70.6 ± 8.9	5.8 ± 1.2	22.2 ± 13.6	82.23	90.47	94.51	96.05	94.96
CN(C)CCOc1ccc(-n2cc(-c3ccc(-c4cn(-c5ccc(OCCN(C)C)cc5)nn4)cc3)nn2)cc1 [SA61, 2-(4-(4-(4-(1-(4-(2-(dimethylamino)ethoxy)phenyl)-1H-1,2,3-triazol-4-yl)phenyl)-1H-1,2,3-triazol-1-yl)phenoxy)-N,N-dimethylethanamine]	47.8 ± 1.7	194 ± 13.7	45.6 ± 1.2	40.2 ± 0.3	179 ± 44.9	–	184.4 ± 0.6	89.4 ± 0.8	–	19.3 ± 16.9	140 ± 63.5	87.42	91.92	94.34	95.55	95.93
CN(C)CCOc1ccc(CCn2cc(-c3ccc(-c4cn(CCc5ccc(OCCN(C)C)c(Cl)c5)nn4)cc3)nn2)cc1Cl [SA63, 2-(4-(2-(4-(4-(1-(4-(2-(dimethylamino)ethoxy)-3-chlorophenethyl)-1H-1,2,3-triazol-4-yl)phenyl)-1H-1,2,3-triazol-1-yl)ethyl)-2-chlorophenoxy)-N,N-dimethylethanamine]	30.6 ± 5.3	122 ± 10.7	29 ± 3.2	43.6 ± 3.3	96.6 ± 36.2	–	138 ± 10.6	37.3 ± 6	133 ± 9.2	37 ± 1	136 ± 5.1	90.68	95.02	95.82	95.98	96.95
CN(C)CCCOc1ccc(CCn2cc(-c3ccc(-c4cn(CCc5ccc(OCCCN(C)C)c(Cl)c5)nn4)cc3)nn2)cc1Cl [SA64, 3-(4-(2-(4-(4-(1-(4-(3-(dimethylamino)propoxy)-3-chlorophenethyl)-1H-1,2,3-triazol-4-yl)phenyl)-1H-1,2,3-triazol-1-yl)ethyl)-2-chlorophenoxy)-N,N-dimethylpropan-1-amine]	28.4 ± 14	147 ± 14.4	20.2 ± 21.1	31 ± 12.4	43.3 ± 14.6	–	121 ± 76.8	42.9 ± 4.5	150 ± 8.1	42.6 ± 5.6	152 ± 20.4	90.59	94.18	95.90	96.37	96.64
CN(C)CCCOc1ccc(-n2cc(-c3ccc(-c4cn(-c5ccc(OCCCN(C)C)c(Br)c5)nn4)cc3)nn2)cc1Br [SA66, 3-(4-(4-(4-(1-(4-(3-(dimethylamino)propoxy)-3-bromophenyl)-1H-1,2,3-triazol-4-yl)phenyl)-1H-1,2,3-triazol-1-yl)-2-bromophenoxy)-N,N-dimethylpropan-1-amine]	19 ± 6.5	104 ± 4.6	31.7 ± 2.2	24.5 ± 6.9	44.2 ± 25.2	–	141 ± 16.5	23.3 ± 4	50.2 ± 10.9	45.5 ± 1.1	165 ± 37.8	85.79	88.30	90.41	95.16	96.48

From patent publication US10487071B2, “Bis-triazole compounds with anti-biofilm and anti-corrosion properties” (Université de Toulon, priority 2015, dated 2019)
